From patent publication US8431596B2 (Cancer Research Technology Limited, priority 2007, dated 2013)

Biological target: T1, AXL (human catalytic domain) (Homo sapiens, UniProt P30530)
T1 construct: purchased Upstate Ltd. 14-512
T1 sequence (P30530 473-894): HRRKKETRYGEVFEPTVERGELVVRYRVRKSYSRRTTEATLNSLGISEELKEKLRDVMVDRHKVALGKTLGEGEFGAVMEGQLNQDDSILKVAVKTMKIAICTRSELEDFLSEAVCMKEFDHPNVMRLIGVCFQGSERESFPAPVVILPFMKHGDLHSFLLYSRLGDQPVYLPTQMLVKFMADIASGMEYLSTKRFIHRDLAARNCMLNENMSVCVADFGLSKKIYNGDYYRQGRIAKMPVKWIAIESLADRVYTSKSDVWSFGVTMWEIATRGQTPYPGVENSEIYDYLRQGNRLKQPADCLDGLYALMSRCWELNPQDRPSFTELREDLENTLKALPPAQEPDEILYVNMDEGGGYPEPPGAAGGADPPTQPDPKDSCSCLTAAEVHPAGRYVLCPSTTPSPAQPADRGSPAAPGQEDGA
Test: AXL (human catalytic domain) Enzyme Activity Assay (IMAP fluorescence polarisation)
Type: biochemical
Outline: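 IMAP FP readout (Ex485/Em535, after overnight binding) measured inhibition of the human AXL catalytic domain (aa473-894, 15 nM final) acting on 100 nM 5FAM-CSK-tide at 150 μM ATP, equal to KM. Reactions ran 60 min at room temperature in pH 7.0 HEPES buffer; IC50 from 10-point curves.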

[1] = first data set, recombinant AXL isoform 1 aa473-894, 150 μM ATP
[2] = further data set (WW-001 through WW-169, XX-001 through XX-469, YY-001 through YY-016, ZZ-001 through ZZ-003), 150 μM ATP

Structure (SMILES)	IC50 [1] [nM]	IC50 [2] [nM]
COc1ccc(-c2cccc3nc(Nc4ccc(OCCN(C)C)cc4)nn23)cc1 [XX-006]	< 1000	100 to 1000
COc1ccc(-c2cccc3nc(Nc4ccc(N)cc4)nn23)cc1 [XX-007]	< 1000	≤ 100
COc1ccc(-c2cccc3nc(Nc4cccc(C(C)=O)c4)nn23)cc1 [XX-008]		100 to 1000
COc1ccc(-c2cccc3nc(Nc4ccc(OC)nc4)nn23)cc1 [XX-010]	1000 to 10000	
COc1ccc(-c2cccc3nc(Nc4ccc(OCCO)cc4)nn23)cc1 [XX-011, 2-{4-[5-(4-methoxy-phenyl)-[1,2,4]triazolo[1,5-a]pyridin-2-ylamino]-phenoxy}-ethanol]	< 1000	1000 to 10000
CC(C)Oc1ccc(-c2cccc3nc(Nc4ccc(OCCN5CCCC5)cc4)nn23)cc1 [XX-012]	< 1000	100 to 1000
COc1ccc(-c2cccc3nc(Nc4ccc5c(c4)OCCN5C)nn23)cc1 [XX-013]	< 1000	100 to 1000
COc1ccc(-c2cccc3nc(Nc4cccc(OCCN5CCOCC5)c4)nn23)cc1 [XX-014]	< 1000	100 to 1000
COc1ccc(-c2cccc3nc(Nc4cccc(OCCn5ccnc5)c4)nn23)cc1 [XX-015, [3-(2-Imidazol-1-yl-ethoxy)-phenyl]-[5-(4-methoxy-phenyl)-[1,2,4]triazolo[1,5-a]pyridin-2-yl]-amine]	< 1000	100 to 1000
COc1ccc(-c2cccc3nc(Nc4ccc(OCCn5ccnc5)cc4)nn23)cc1 [XX-016]	< 1000	100 to 1000
Cn1cc(-c2cccc3nc(Nc4ccc(OCCN5CCCC5)cc4)nn23)cn1 [XX-017]	< 1000	100 to 1000
c1cc(-c2ccc3c(c2)OCCO3)n2nc(Nc3ccc(OCCN4CCCC4)cc3)nc2c1 [XX-018]	< 1000	100 to 1000
COc1ccc(-c2cccc3nc(Nc4ccc(OCCN5CCCCC5)cc4)nn23)cc1 [XX-019]	< 1000	≤ 100
c1cc(-c2ccc3occc3c2)n2nc(Nc3ccc(OCCN4CCCC4)cc3)nc2c1 [XX-020]	< 1000	≤ 100
c1cc(-c2ccc3c(c2)OCO3)n2nc(Nc3ccc(OCCN4CCCC4)cc3)nc2c1 [XX-021]	< 1000	≤ 100
CNCCOc1ccc(Nc2nc3cccc(-c4ccc(OC)cc4)n3n2)cc1 [XX-022]	< 1000	100 to 1000
COc1ccc(-c2cccc3nc(Nc4ccc(N5CCNCC5)cc4)nn23)cc1 [XX-023, [5-(4-Methoxy-phenyl)-[1,2,4]triazolo[1,5-a]pyridin-2-yl]-(4-piperazin-1-yl-phenyl)-amine]	< 1000	≤ 100
COc1ccc(-c2cccc3nc(Nc4ccc(N5CCOCC5)cc4)nn23)cc1 [XX-024]	1000 to 10000	≤ 100
COc1ccc(-c2cccc3nc(Nc4ccc(OCCNCCO)cc4)nn23)cc1 [XX-026]	< 1000	100 to 1000
COc1ccc(-c2cccc3nc(Nc4ccc(OCCNCCN(C)C)cc4)nn23)cc1 [XX-027]	< 1000	100 to 1000
COc1ccc(-c2cccc3nc(Nc4ccc(OCCNc5ccncc5)cc4)nn23)cc1 [XX-028]	< 1000	100 to 1000

Structure (SMILES)	IC50 [1] [nM]	IC50 [2] [nM]
COc1ccc(-c2cccc3nc(Nc4ccc(OCCNCc5ccccn5)cc4)nn23)cc1 [XX-029]	< 1000	100 to 1000
CCc1nnc(NCCOc2ccc(Nc3nc4cccc(-c5ccc(OC)cc5)n4n3)cc2)[nH]1 [XX-030]	< 1000	100 to 1000
COCCNCCOc1ccc(Nc2nc3cccc(-c4ccc(OC)cc4)n3n2)cc1 [XX-031]	< 1000	100 to 1000
COc1ccc(-c2cccc3nc(Nc4ccc(OCCNCc5ccncc5)cc4)nn23)cc1 [XX-032]	< 1000	≤ 100
COc1ccc(-c2cccc3nc(Nc4ccc(OCCNCc5cccnc5)cc4)nn23)cc1 [XX-033]	< 1000	100 to 1000
COc1ccc(-c2cccc3nc(Nc4ccc(OCCNCc5ccc(N)cc5)cc4)nn23)cc1 [XX-034]	< 1000	100 to 1000
CNC(=O)COc1ccc(Nc2nc3cccc(-c4ccc(OC)cc4)n3n2)cc1 [XX-035]	1000 to 10000	≤ 100
COc1ccc(-c2cccc3nc(Nc4ccc(C(=O)NCCN(C)C)cc4)nn23)cc1 [XX-036]	< 1000	1000 to 10000
COc1ccc(-c2cccc3nc(Nc4cccc(C(=O)NCCN(C)C)c4)nn23)cc1 [XX-037]	< 1000	≤ 100
c1cc(-c2ccc(N3CCOCC3)cc2)n2nc(Nc3ccc(OCCN4CCCC4)cc3)nc2c1 [XX-038]	< 1000	≤ 100
COc1ccc(-c2cccc3nc(Nc4ccc(OCCCN5C(=O)c6ccccc6C5=O)cc4)nn23)cc1 [XX-039, 2-(3-{4-[5-(4-methoxy-phenyl)-[1,2,4]triazolo[1,5-a]pyridin-2-ylamino]-phenoxy}-propyl)-isoindole-1,3-dione]		100 to 1000
CNCCCOc1ccc(Nc2nc3cccc(-c4ccc(OC)cc4)n3n2)cc1 [XX-040]	< 1000	
COc1ccc(-c2cccc3nc(Nc4ccc(OCCCN)cc4)nn23)cc1 [XX-041, [4-(3-Amino-propoxy)-phenyl]-[5-(4-methoxy-phenyl)-[1,2,4]triazolo[1,5-a]pyridin-2-yl]-amine]	< 1000	100 to 1000
COc1ccc(-c2cccc3nc(Nc4cccc(C(=O)NCCO)c4)nn23)cc1 [XX-042]		100 to 1000
c1cc(-c2ccc3c(c2)CCO3)n2nc(Nc3ccc(OCCN4CCCC4)cc3)nc2c1 [XX-044]	< 1000	
COc1ccc(-c2cccc3nc(Nc4cccc(OCCCN)c4)nn23)cc1 [XX-045]	< 1000	100 to 1000
COc1ccc(-c2cccc3nc(Nc4ccc(OCCN)cc4)nn23)cc1 [XX-046]	< 1000	≤ 100
c1cc(-c2ccc3c(c2)OCO3)n2nc(Nc3ccc(OCCN4CCCCC4)cc3)nc2c1 [XX-047]	< 1000	100 to 1000
CN(C)CCOc1ccc(Nc2nc3cccc(-c4ccc5c(c4)OCO5)n3n2)cc1 [XX-048]	< 1000	100 to 1000
CNCCOc1ccc(Nc2nc3cccc(-c4ccc5c(c4)OCO5)n3n2)cc1 [XX-049]	< 1000	100 to 1000
c1cc(-c2ccc3occc3c2)n2nc(Nc3ccc(OCCN4CCCCC4)cc3)nc2c1 [XX-050]	< 1000	≤ 100

Structure (SMILES)	IC50 [1] [nM]	IC50 [2] [nM]
CN(C)CCOc1ccc(Nc2nc3cccc(-c4ccc5occc5c4)n3n2)cc1 [XX-051]	< 1000	≤ 100
c1cc(-c2ccc3c(c2)CCO3)n2nc(Nc3ccc(OCCN4CCCCC4)cc3)nc2c1 [XX-052]	< 1000	100 to 1000
CN(C)CCOc1ccc(Nc2nc3cccc(-c4ccc5c(c4)CCO5)n3n2)cc1 [XX-053]	< 1000	≤ 100
c1cc(-c2ccc3c(c2)OCCO3)n2nc(Nc3ccc(OCCN4CCCCC4)cc3)nc2c1 [XX-054]	< 1000	≤ 100
CN(C)CCOc1ccc(Nc2nc3cccc(-c4ccc5c(c4)OCCO5)n3n2)cc1 [XX-055]	< 1000	≤ 100
CNc1ccc(Nc2nc3cccc(-c4ccc(OC)cc4)n3n2)cc1 [XX-056]	1000 to 10000	1000 to 10000
COc1ccc(-c2cccc3nc(Nc4ccc(N(C)C)cc4)nn23)cc1 [XX-057]	1000 to 10000	1000 to 10000
c1cc(-c2ccc3occc3c2)n2nc(Nc3ccc(N4CCNCC4)cc3)nc2c1 [XX-058]	< 1000	≤ 100
c1cc(-c2ccc3c(c2)CCO3)n2nc(Nc3ccc(N4CCNCC4)cc3)nc2c1 [XX-059]	< 1000	100 to 1000
c1cc(-c2ccc3c(c2)OCCO3)n2nc(Nc3ccc(N4CCNCC4)cc3)nc2c1 [XX-060]	< 1000	≤ 100
COc1ccc(-c2cccc3nc(Nc4cccc(N)c4)nn23)cc1 [XX-061, N-[5-(4-Methoxy-phenyl)-[1,2,4]triazolo[1,5-a]pyridin-2-yl]-benzene-1,3-diamine]	1000 to 10000	1000 to 10000
COc1ccc(-c2cccc3nc(Nc4ccc5c(c4)OCCCO5)nn23)cc1 [XX-062]	1000 to 10000	1000 to 10000
COc1ccc(-c2cccc3nc(Nc4ccc(S(N)(=O)=O)cc4)nn23)cc1 [XX-063]	1000 to 10000	1000 to 10000
COc1ccc(-c2cccc3nc(Nc4ccc(OCCN(C)Cc5ccccc5)cc4)nn23)cc1 [XX-064]	< 1000	100 to 1000
COc1ccc(-c2cccc3nc(Nc4ccc(OCCN(C)CCO)cc4)nn23)cc1 [XX-065]	< 1000	≤ 100
COc1ccc(-c2cccc3nc(Nc4ccc(OCCN5CCCC5)c(OC)c4)nn23)cc1 [XX-066]	< 1000	≤ 100
COc1ccc(-c2cccc3nc(Nc4ccc(OCCN(C)Cc5ccc(N)cc5)cc4)nn23)cc1 [XX-067]	< 1000	≤ 100
NCc1cc2cc(Nc3nc4cccc(-c5ccc6c(c5)OCCO6)n4n3)ccc2o1 [XX-068]	< 1000	≤ 100
CNCCCOc1cccc(Nc2nc3cccc(-c4ccc5c(c4)OCCO5)n3n2)c1 [XX-069]	< 1000	≤ 100
Cc1cc(Nc2nc3cccc(-c4ccc5c(c4)OCCO5)n3n2)ccc1OCC(N)=O [XX-071]	1000 to 10000	1000 to 10000
